Columns and labels:
[1] = target: T1, NMDA receptor containing the NR2B subunit (Homo sapiens, UniProt Q05586+Q13224); settings: continuous intravenous administration; cited from earlier work
[2] = target: NMDA receptor containing the NR2B subunit (Rattus norvegicus, UniProt P35439+Q00960); settings: rodents; cited from earlier work
[3] = target: T2, Human GRIN1 and human GRIN2B expressing HEK293 cells (Homo sapiens, UniProt Q13224); assay: NR2B Ca2+ flux assay; assay type: cell-based; settings: 10 μM test compound, glutamic acid/glycine stimulated Fluo-4 fluorescence, FLIPR, read-out: inhibitory rate (@10 μM)
T2 construct: host or cells: HEK293
Procedure: Experimental Example 1 NR2B Ca^2+ Flux Assay
Human GRIN1 and human GRIN2B expressing HEK293 cells were purchased from ChanTest. The cells were cultured in a DMEM/F-12 (COSMO BIO, 10-092-CM) medium added with 10% FBS (fetal bovine serum, AusGene), 100 units/mL penicillin, 100 μg/mL streptomycin, 500 μg/mL neomycin, 100 μg/mL Zeocin, 5 μg/mL Blasticidin at 37° C., 5% CO2. The cells were detached from flask with trypsin the day before the assay, suspended in a seeding medium (DMEM (Invitrogen, 31053) added with 10% FBS, 100 units/mL penicillin, 100 μg/mL streptomycin) at 8×10^5 cells/mL, seeded by 25 μL per well in a 384-well plate (Falcon, 356663) at 20000 cells/well, and cultured overnight in an incubator. On the day of the assay, tetracycline (Wako Pure Chemical Industries, Ltd., 209-16561) was diluted with the seeding medium at 2 μg/mL, added at […] to the plate seeded with the cells, and cultured for 2 hr in an incubator. Thereafter, the medium was removed, and the cells were washed with 50 μL/well assay buffer (137 mM NaCl, 4 mM KCl, 1.8 mM CaCl2, 10 mM HEPES (pH 7.2), 10 mM Glucose, 0.1% BSA). Then, a loading buffer (assay buffer added with 2.5 uM Fluo-4AM, 2 mM Amaranth, 1 mM Tartrazine) was added at 25 μL/well, and loading was performed in the incubator for 30 min, and at room temperature for 15 min. A test compound (25 μL) was added, and the cells were stood for 15 min at room temperature. Using FLIPR (Molecular Devices), 25 μL of an assay buffer containing […], 30 μM glycine was added, and the fluorescence signal was measured every 3 seconds for 5 min. The inhibitory activity was calculated as a relative activity value that inhibits 100% of the cumulative value of the fluorescence value of a well added with a buffer free of glutamic acid, glycine, relative to the cumulative value of the fluorescence value of each well.

[4] = target: T1, NMDA receptor containing the NR2B subunit; settings: in vivo; cited from earlier work
NMDA receptor [5] = settings: continuous intravenous administration; cited from earlier work
NMDA receptor [6] = settings: in vivo; cited from earlier work

T2 sequence (Q13224 27-1484, other chains not shown): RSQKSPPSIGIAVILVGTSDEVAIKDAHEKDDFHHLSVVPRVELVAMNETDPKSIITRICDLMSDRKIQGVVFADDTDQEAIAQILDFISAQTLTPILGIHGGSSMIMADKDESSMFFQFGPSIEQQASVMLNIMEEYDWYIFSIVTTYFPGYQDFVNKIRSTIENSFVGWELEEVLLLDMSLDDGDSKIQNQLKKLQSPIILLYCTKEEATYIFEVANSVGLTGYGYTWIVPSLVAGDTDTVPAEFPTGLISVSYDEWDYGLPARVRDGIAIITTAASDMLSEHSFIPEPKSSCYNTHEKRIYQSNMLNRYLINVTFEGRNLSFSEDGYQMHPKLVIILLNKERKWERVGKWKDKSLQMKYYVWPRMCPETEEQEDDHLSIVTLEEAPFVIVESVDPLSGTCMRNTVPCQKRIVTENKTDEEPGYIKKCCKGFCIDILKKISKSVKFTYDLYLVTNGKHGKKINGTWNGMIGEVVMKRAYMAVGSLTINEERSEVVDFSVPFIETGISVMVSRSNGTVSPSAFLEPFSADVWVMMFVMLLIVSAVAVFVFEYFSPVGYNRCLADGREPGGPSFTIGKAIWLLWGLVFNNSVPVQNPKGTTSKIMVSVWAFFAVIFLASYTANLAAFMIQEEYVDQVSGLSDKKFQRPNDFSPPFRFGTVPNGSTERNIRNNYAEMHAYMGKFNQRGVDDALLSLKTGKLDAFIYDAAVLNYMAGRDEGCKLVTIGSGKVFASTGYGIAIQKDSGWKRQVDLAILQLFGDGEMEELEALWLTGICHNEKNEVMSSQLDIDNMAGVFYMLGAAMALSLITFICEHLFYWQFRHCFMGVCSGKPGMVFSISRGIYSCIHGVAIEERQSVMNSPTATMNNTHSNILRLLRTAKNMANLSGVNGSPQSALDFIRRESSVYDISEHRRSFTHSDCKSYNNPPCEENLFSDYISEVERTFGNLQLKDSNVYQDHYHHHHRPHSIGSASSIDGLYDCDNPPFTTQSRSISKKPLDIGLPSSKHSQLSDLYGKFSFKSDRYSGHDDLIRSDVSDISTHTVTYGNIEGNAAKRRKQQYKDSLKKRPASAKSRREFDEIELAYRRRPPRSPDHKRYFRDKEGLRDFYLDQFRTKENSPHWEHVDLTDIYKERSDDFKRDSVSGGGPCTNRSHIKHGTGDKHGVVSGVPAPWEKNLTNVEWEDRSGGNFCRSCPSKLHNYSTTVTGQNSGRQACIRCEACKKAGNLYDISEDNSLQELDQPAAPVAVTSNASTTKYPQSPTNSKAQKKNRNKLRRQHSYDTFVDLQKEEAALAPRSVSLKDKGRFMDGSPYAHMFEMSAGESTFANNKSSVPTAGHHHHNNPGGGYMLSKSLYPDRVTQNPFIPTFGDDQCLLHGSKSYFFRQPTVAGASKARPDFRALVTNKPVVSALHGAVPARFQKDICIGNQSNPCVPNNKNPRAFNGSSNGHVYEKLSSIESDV
T1 sequence (Q13224 27-1484, other chains not shown): as above
Sequence of NMDA receptor containing the NR2B subunit (Rattus norvegicus, UniProt P35439+Q00960) (Q00960 27-1482, other chains not shown): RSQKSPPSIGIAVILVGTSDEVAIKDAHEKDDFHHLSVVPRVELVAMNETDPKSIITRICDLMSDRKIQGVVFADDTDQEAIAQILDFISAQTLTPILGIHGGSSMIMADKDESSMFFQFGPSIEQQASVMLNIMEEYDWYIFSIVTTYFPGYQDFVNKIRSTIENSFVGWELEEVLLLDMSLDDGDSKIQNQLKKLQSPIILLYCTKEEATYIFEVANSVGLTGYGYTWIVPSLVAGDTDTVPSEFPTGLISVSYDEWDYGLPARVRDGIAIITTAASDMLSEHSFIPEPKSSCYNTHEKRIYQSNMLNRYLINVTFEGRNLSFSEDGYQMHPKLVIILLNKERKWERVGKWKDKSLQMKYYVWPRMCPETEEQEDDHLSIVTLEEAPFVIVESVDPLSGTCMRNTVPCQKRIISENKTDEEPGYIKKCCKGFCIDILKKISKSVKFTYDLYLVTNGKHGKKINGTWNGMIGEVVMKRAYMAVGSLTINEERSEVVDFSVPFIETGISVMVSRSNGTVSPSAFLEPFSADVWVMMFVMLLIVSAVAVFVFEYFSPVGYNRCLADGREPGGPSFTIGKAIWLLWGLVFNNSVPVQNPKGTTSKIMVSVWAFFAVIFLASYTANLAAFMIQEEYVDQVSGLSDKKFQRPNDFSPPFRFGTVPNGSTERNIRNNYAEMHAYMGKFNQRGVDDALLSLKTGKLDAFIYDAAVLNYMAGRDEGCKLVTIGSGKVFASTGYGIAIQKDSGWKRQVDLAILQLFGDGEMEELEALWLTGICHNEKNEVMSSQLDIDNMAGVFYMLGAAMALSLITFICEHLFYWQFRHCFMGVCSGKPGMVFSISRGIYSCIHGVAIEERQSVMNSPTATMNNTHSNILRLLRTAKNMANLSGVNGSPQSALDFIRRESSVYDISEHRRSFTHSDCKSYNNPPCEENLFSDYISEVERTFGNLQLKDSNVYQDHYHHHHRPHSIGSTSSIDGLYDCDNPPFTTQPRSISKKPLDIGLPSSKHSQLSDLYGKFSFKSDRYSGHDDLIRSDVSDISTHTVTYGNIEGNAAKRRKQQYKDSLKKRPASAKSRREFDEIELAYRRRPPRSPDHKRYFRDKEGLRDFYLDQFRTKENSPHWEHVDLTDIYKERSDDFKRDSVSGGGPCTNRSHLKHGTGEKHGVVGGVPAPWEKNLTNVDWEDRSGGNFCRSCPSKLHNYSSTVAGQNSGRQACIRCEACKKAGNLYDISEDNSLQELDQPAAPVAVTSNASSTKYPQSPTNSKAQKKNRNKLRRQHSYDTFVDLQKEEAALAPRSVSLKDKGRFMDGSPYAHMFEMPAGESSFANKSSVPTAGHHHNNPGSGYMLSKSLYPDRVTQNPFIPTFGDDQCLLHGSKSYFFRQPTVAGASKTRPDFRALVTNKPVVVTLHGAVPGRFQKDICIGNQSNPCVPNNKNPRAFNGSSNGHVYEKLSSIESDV

Compound	inhibition at 10 µM [3] [%]	also measured
C[C@@H]([C@@H](O)c1ccc(O)cc1)N1CCC(O)(c2ccccc2)CC1 [CP-101, 606]		treatment resistant-depression symptom [1]: significantly improves treatment resistant-depression symptom; number of occurrence and depth of cortical spreading depression [2]: suppress the number of occurrence and the depth of cortical spreading depression
O=C(Cc1cccc2nccn12)Nc1ccc(S(F)(F)(F)(F)F)cc1 [Example 62, 2-(imidazo[1,2-a]pyridin-5-yl)-N-(4-(pentafluoro-λ^6-sulfanyl)phenyl)-acetamide]	82	
O=C(Cc1cccc2nccn12)Nc1ccc(OC(F)(F)F)nc1 [Example 63, 2-(imidazo[1,2-a]pyridin-5-yl)-N-(6-(trifluoromethoxy)-pyridin-3-yl)acetamide]	85	
CC(C)(C)c1ccc(NC(=O)Cc2cccc3nccn23)cc1 [Example 64, N-(4-tert-butylphenyl)-2-(imidazo[1,2-a]pyridin-5-yl)acetamide]	84	
O=C(Cc1cccc2nccn12)Nc1cc2ccccc2s1 [Example 65, N-(1-benzothiophen-2-yl)-2-(imidazo[1,2-a]pyridin-5-yl)acetamide]	83	
CC(C)c1ccc(NC(=O)Cc2cccc3nccn23)cc1 [Example 66, 2-(imidazo[1,2-a]pyridin-5-yl)-N-(4-isopropylphenyl)acetamide]	92	
O=C(Cc1cccc2nccn12)Nc1ccc2c(c1)CCO2 [Example 67, N-(2,3-dihydro-1-benzofuran-5-yl)-2-(imidazo[1,2-a]pyridin-5-yl)acetamide]	78	
O=C(Cc1cccc2nccn12)Nc1ccc(C(F)F)cc1 [Example 69, N-(4-(difluoromethyl)phenyl)-2-(imidazo[1,2-a]pyridin-5-yl)acetamide]	87	
Cc1cc(CC(=O)Nc2ccc(C(F)(F)F)cc2)n2ccnc2c1 [Example 71, 2-(7-methylimidazo(1,2-a]pyridin-5-yl)-N-(4-(trifluoromethyl)phenyl)-acetamide]	51	
O=C(Cc1c(F)ccc2nccn12)Nc1ccc(C(F)(F)F)cc1 [Example 73, 2-(6-fluoroimidazo[1,2-a]pyridin-5-yl)-N-(4-(trifluoromethyl)phenyl)-acetamide]	73	
O=C(Cc1cccc2nccn12)Nc1ccc(OC2CCC2)cc1 [Example 75, N-(4-(cyclobutyloxy)phenyl)-2-(imidazo[1,2-a]pyridin-5-yl)acetamide]	68	
CCc1ccc2nccn2c1CC(=O)Nc1ccc(OC(F)(F)F)cc1 [Example 78, 2-(6-ethylimidazo[1,2-a]pyridin-5-yl)-N-(4-(trifluoromethoxy)phenyl)acetamide]	97	
Cc1ccc2nccn2c1CC(=O)Nc1ccc(OC(F)(F)F)cc1 [Example 79, 2-(6-methylimidazo[1,2-a]pyridin-5-yl)-N-(4-(trifluoromethoxy)phenyl)acetamide]	95	
COc1ccc2nccn2c1CC(=O)Nc1ccc(OC(F)(F)F)cc1 [Example 80, 2-(6-methoxyimidazo[1,2-a]pyridin-5-yl)-N-(4-(trifluoromethoxy)phenyl)acetamide]	94	
CCc1ccc2nccn2c1CC(=O)Nc1ccc(C(F)(F)F)cc1 [Example 81, 2-(6-ethylimidazo[1,2-a]pyridin-5-yl)-N-(4-(trifluoromethyl)phenyl)-acetamide]	95	
O=C(Cc1cccc2nccn12)Nc1ccc(I)c(F)c1 [Example 82, N-(3-fluoro-4-iodophenyl)-2-(imidazo[1,2-a]pyridin-5-yl)acetamide]	94	
O=C(Cc1cccc2nccn12)Nc1ccc(Br)c(F)c1 [Example 83, N-(4-bromo-3-fluorophenyl)-2-(imidazo[1,2-a]pyridin-5-yl)acetamide]	93	

Compound	inhibition at 10 µM [3] [%]	also measured
CC(C(=O)Nc1ccc(OC(F)(F)F)cc1)c1cccc2nccn12 (stereo not shown) [Example 84, 2-(imidazo[1,2-a]pyridin-5-yl)-N-(4-(trifluoromethoxy)-phenyl)propanamide]	94	
Cc1cn2c(CC(=O)Nc3ccc(OC(F)(F)F)cc3)cccc2n1 [Example 85, 2-(2-methylimidazo[1,2-a]pyridin-5-yl)-N-(4-(trifluoromethoxy)-phenyl)acetamide]	91	
O=C(Cc1cc(F)cc2nccn12)Nc1ccc(OC(F)(F)F)cc1 [Example 86, 2-(7-fluoroimidazo[1,2-a]pyridin-5-yl)-N-(4-(trifluoromethoxy)-phenyl)acetamide]	93	
Cc1ccc2nccn2c1CC(=O)Nc1ccc(C(F)(F)F)cc1 [Example 87, 2-(6-methylimidazo[1,2-a]pyridin-5-yl)-N-(4-(trifluoromethyl)phenyl)-acetamide]	93	
O=C(Cc1cccc2nccn12)Nc1ccc(Br)cc1 [Example 88, N-(4-bromophenyl)-2-(imidazo[1,2-a]pyridin-5-yl)acetamide]	91	
COc1ccc2nccn2c1CC(=O)Nc1ccc(C(F)(F)F)cc1 [Example 89, 2-(6-methoxyimidazo[1,2-a]pyridin-5-yl)-N-(4-(trifluoromethyl)phenyl)-acetamide]	92	
O=C(Cc1cc(F)cc2nccn12)Nc1ccc(C(F)(F)F)cc1 [Example 90, 2-(7-fluoroimidazo[1,2-a]pyridin-5-yl)-N-(4-(trifluoromethyl)phenyl)-acetamide]	88	
O=C(Cc1c(Cl)ccc2nccn12)Nc1ccc(OC(F)(F)F)cc1 [Example 91, 2-(6-chloroimidazo[1,2-a]pyridin-5-yl)-N-(4-(trifluoromethoxy)-phenyl)acetamide]	91	
O=C(Cc1cccc2nccn12)Nc1ccc(OC(F)(F)F)cn1 [Example 92, 2-(imidazo[1,2-a]pyridin-5-yl)-N-(5-(trifluoromethoxy)-pyridin-2-yl)acetamide]	87	
CC(C(=O)Nc1ccc(C(F)(F)F)cc1)c1cccc2nccn12 (stereo not shown) [Example 93, 2-(imidazo[1,2-a]pyridin-5-yl)-N-(4-(trifluoromethyl)phenyl)-propanamide]	89	
O=C(Cc1ccc(F)c2nccn12)Nc1ccc(OC(F)(F)F)cc1 [Example 94, 2-(8-fluoroimidazo[1,2-a]pyridin-5-yl)-N-(4-(trifluoromethoxy)-phenyl)acetamide]	85	
CCc1ccc(NC(=O)Cc2cccc3nccn23)nc1 [Example 95, N-(5-ethylpyridin-2-yl)-2-(imidazo[1,2-a]pyridin-5-yl)acetamide]	76	
CC(C(O)c1ccc(O)cc1)N1CCC(Cc2ccccc2)CC1 (stereo not shown) [Ifenprodil]		pain sense threshold [4]: pain sense threshold increases
C[C@@H](CN1CCC(Cc2ccccc2)CC1)[C@@H](O)c1ccc(O)cc1 [Ro25-6981]		number of occurrence and depth of cortical spreading depression [2]: suppress the number of occurrence and the depth of cortical spreading depression
CNC1(c2ccccc2Cl)CCCCC1=O (stereo not shown) [ketamine]		depression symptom accompanying major depression and bipolar disorder (NMDA receptor [5]): improves depression symptom accompanying major depression and bipolar disorder rapidly and in a sustained manner
CC12CC3CC(C)(C1)CC(N)(C3)C2 [memantine]		peripheral symptoms of dementia (NMDA receptor [6]): partially improves peripheral symptoms of dementia

Reference: patent publication US10202376B2, “Heterocyclic compound” (Takeda Pharmaceutical Company Limited, priority 2014, dated 2019)
